Test results as given in PubChem BioAssay (NCI).
Values joined by “and” are separate entries in the source; they are usually repeats but may differ in a detail not shown here. Equal entries are not always repeated.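 Cells were grown in 96-well plates and exposed to each compound for 48 hours at five concentrations; endpoints were interpolated linearly between bracketing concentrations, or set to the highest concentration if not reached. At the GI50, growth is halved. At the TGI there is no net growth.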

Key:
Assay in all cases: DTP human tumour cell line panel, 48 h
T-47D breast = test system: T-47D breast
NCI/ADR-RES ovarian = test system: NCI/ADR-RES ovarian
MDA-MB-231 breast = test system: MDA-MB-231 breast
MCF7 breast = test system: MCF7 breast
PC-3 prostate = test system: PC-3 prostate

SMILES | GI50 (T-47D breast) | TGI (T-47D breast) | GI50 (NCI/ADR-RES ovarian) | TGI (NCI/ADR-RES ovarian) | GI50 (MDA-MB-231 breast) | TGI (MDA-MB-231 breast) | GI50 (MCF7 breast) | TGI (MCF7 breast) | GI50 (PC-3 prostate) | TGI (PC-3 prostate)
O=C(Nc1nc2ccc(S(=O)(=O)Nc3ccc(C4(C(F)(F)F)CC4)cc3)cc2[nH]1)c1cnccn1 | 3.8 µM | 23.9 µM | 1.73 µM | 11.8 µM | 5.32 µM | 19.4 µM | 551 nM | 13.4 µM | 1060 nM | 2.47 µM
Nc1ncnc2c1c(-c1ccc(Oc3ccccc3)cc1)nn2CC1SSCC1O (centres undefined) | 0.653 µM | 1.85 µM | 6.61 µM | 17.6 µM | 5.36 µM | 16.8 µM | 1440 nM | 7.85 µM | 6230 nM | 14.9 µM
O=C(CI)NC(=O)NC(=O)NCc1ccccc1 | 2.48 µM | 6.7 µM | 4.62 µM | 30.3 µM | 3.9 µM | 15.7 µM | 2280 nM | 8.59 µM | 15100 nM | 30.7 µM
NC1=NC(c2ccccc2Cl)c2c(n[nH]c2N)N1 (centres undefined) | 26.1 µM | > 100 µM | 30.4 µM | > 100 µM | 5.95 µM | > 100 µM | 7090 nM | > 100 µM | 85800 nM | > 100 µM
N#CN1CC[C@H](C(=O)Nc2ncc(-c3ccccc3)s2)C1 | 0.483 µM | 3.35 µM | 0.724 µM | 8.01 µM | 0.41 µM | 4.65 µM | 190 nM | 1.32 µM | 706 nM | 2.97 µM
Nc1nc(Cl)c2ncn(Cc3ccc(C45CC6CC(CC(C6)C4)C5)c(OCc4cc(F)c(F)cc4F)c3)c2n1 | 6.75 µM | 44.8 µM | 3.5 µM | 13.8 µM | 2.58 µM | 9.81 µM | 3120 nM | 16.3 µM | 1000 nM | 3.98 µM
CCc1ccc(Oc2c(-c3ccc(OCc4ccc(Cl)cc4)cc3O)nn(C)c2C(F)(F)F)cc1 | 0.248 µM | 0.936 µM | 0.905 µM | 4.47 µM | 1.19 µM | 2.85 µM | 339 nM | 1.9 µM | 358 nM | 1.68 µM
[O-][n+]1c2cccc(O)c2[n+]([O-])c2cccc(O)c21 | – | > 100 µM | – | > 100 µM | – | – | – | > 100 µM | – | > 100 µM
COc1cc([C@@H]2c3cc4c(cc3[C@H](SC(=N)N)[C@H]3COC(=O)[C@H]23)OCO4)cc(OC)c1OC | 66.7 µM | > 100 µM | 0.253 µM | > 100 µM | 0.388 µM | > 100 µM | 58.6 nM | > 100 µM | 381 nM | > 100 µM
O=c1[nH]c(=S)[nH]c(O)c1/C=C1\C=Nc2ccccc21 | 34.4 µM | > 100 µM | 6.64 µM | 58 µM | 4.1 µM | 33.6 µM | 3950 nM | 23.9 µM | 4880 nM | 73.3 µM
O=C1Nc2ccc(-c3cccnc3)cc2/C1=C/c1cc(Br)c(O)c(Br)c1 | 10.6 µM | > 25 µM | > 20 µM | > 25 µM | 7.41 µM | > 25 µM | 11400 nM | > 25 µM | 9050 nM | > 25 µM
CN(C)CCNC(=O)Nc1ccc(N(C)c2ccnc(Nc3ccc(CS(C)(=O)=O)cc3)n2)cc1 | > 25 µM | > 25 µM | > 25 µM | > 25 µM | > 25 µM | > 25 µM | > 25000 nM | > 25 µM | > 25000 nM | > 25 µM
COc1ccc(N(CC(=O)O)N=O)cc1 | – | > 100 µM | – | > 100 µM | – | > 100 µM | – | > 100 µM | – | > 100 µM
C/C(=C/CCC(C)[C@@H]1CC[C@]2(C)C3=C(CC[C@@]12C)[C@@]1(C)CCC(=O)C(C)(C)[C@@H]1CC3)C(=O)O (some centres undefined) | 1.14 µM | 3.08 µM | 1.54 µM | 3.26 µM | 1.53 µM | 3.15 µM | 1020 nM | 2.87 µM | 1120 nM | 2.51 µM
OCC1OC(OC2(CO)OC(CO)C(O)C2O)C(O)C(O)C1O (centres undefined) | > 100 µM | > 100 µM | > 100 µM | > 100 µM | > 100 µM | > 100 µM | – | – | > 100000 nM | > 100 µM
CN(C)CCCOc1ccc(NC2=C(Cl)C(=O)C(Nc3ccc(OCCCN(C)C)cc3)=C(Cl)C2=O)cc1 | 1.96 µM | 4.96 µM | 1.68 µM | 4.72 µM | 0.656 µM | 1.49 µM | 150 nM | 0.376 µM | 1230 nM | 2.76 µM
Cc1ccccc1Nc1cc(O)c2c(=O)cc(-c3ccccc3)oc2c1 | 2.96 µM | > 100 µM | 1.28 µM | > 100 µM | 3.58 µM | > 100 µM | 821 nM | > 100 µM | 3300 nM | > 100 µM
OCc1ccc(-c2ccc(-c3ccc(CO)o3)o2)o1 | 22.7 µM | > 100 µM | > 100 µM | > 100 µM | 33.1 µM | > 100 µM | 16700 nM | > 100 µM | > 100000 nM | > 100 µM
CCOC(=O)[C@@H](C)C[C@H](Cc1ccccc1)NC(=O)c1csc([C@@H](C[C@H](C(C)C)N(C)C(=O)CNC(=O)[C@H]2CCCCN2C)OC(C)=O)n1 | 0.59 µM | > 14.3 µM | > 14.3 µM | > 14.3 µM | 1.44 µM | > 10.8 µM | 319 nM | > 14.3 µM | 508 nM | > 14.3 µM
O=[N+]([O-])/C=C/c1ccc2ccccc2c1 | – | 2.13 µM | – | > 28 µM | – | 13.4 µM | – | > 100 µM | – | 14 µM
COc1cccc(-c2cc(=O)c3cc(N4CCN(C)CC4)ccc3[nH]2)c1 | – | – | 3.68 µM | – | 2.24 µM | 9.89 µM and 7.13 µM | 3720 nM | > 100 µM | 1550 nM | > 100 µM
